Where a name gives a salt, the structure may show the parent alone.
Experiment: not given
Conditions: intestinal bacterial flora; pH lower than 8.4; cited from earlier work

SMILES | biotransformation of the unabsorbed portion
C[C@H](CCC(=O)O)[C@H]1CC[C@H]2[C@@H]3[C@@H](O)C[C@@H]4C[C@H](O)CC[C@]4(C)[C@H]3CC[C@]12C [ursodeoxycholic acid] | undergoes a biotransformation to litocholic acid

Experiment: pH of 1% (w/v) aqueous solution of the salt
Format: physicochemical
Conditions: 1% (w/v) in water
Protocol: The sodium and potassium salts of the ursodeoxycholic acid, whose 1% (w/v) aqueous solutions show pH values respectively equal to 7.80 and 7.90, are prepared in a similar manner.
20 Ml of a 0.5 M aqueous solution (10 mmoles) of 1-(2-hydroxyethyl)pyrrolidine are added under stirring to a suspension containing 3.92 g (10 mmoles) of ursodeoxycholic acid in 50 ml of water prolonging the stirring until complete solubilization. The obtained solution is then freeze-dried obtaining with quantitative yield a white powder corresponding to the salt in object.
The N-methyl-D-glucamine and L-arginine salts of the ursodeoxycholic acid, whose 1% (w/v) aqueous solutions show pH values respectively equal to 8.06 and 7.75, are prepared in a similar manner.
10 Ml of a 1 M aqueous solution (10 mmoles) of choline bicarbonate are added under stirring to a suspension containing 3.92 g (10 mmoles) of ursodeoxycholic acid in 50 ml of water prolonging the stirring until complete solubilization.

SMILES | pH value of a 1% (w/v) aqueous solution
C[C@H](CCC(=O)O)[C@H]1CC[C@H]2[C@@H]3[C@@H](O)C[C@@H]4C[C@H](O)CC[C@]4(C)[C@H]3CC[C@]12C [L-arginine salt of the ursodeoxycholic acid] | 7.75
C[C@H](CCC(=O)O)[C@H]1CC[C@H]2[C@@H]3[C@@H](O)C[C@@H]4C[C@H](O)CC[C@]4(C)[C@H]3CC[C@]12C [sodium salt of the ursodeoxycholic acid] | 7.80
C[C@H](CCC(=O)O)[C@H]1CC[C@H]2[C@@H]3[C@@H](O)C[C@@H]4C[C@H](O)CC[C@]4(C)[C@H]3CC[C@]12C [Example 1, LITHIUM SALT OF THE URSODEOXYCHOLIC ACID] | 8.13
C[C@H](CCC(=O)O)[C@H]1CC[C@H]2[C@@H]3[C@@H](O)C[C@@H]4C[C@H](O)CC[C@]4(C)[C@H]3CC[C@]12C [N-methyl-D-glucamine salt of the ursodeoxycholic acid] | 8.06
C[C@H](CCC(=O)O)[C@H]1CC[C@H]2[C@@H]3[C@@H](O)C[C@@H]4C[C@H](O)CC[C@]4(C)[C@H]3CC[C@]12C [Example 3, CHOLINE SALT OF THE URSODEOXYCHOLIC ACID] | 7.40
C[C@H](CCC(=O)O)[C@H]1CC[C@H]2[C@@H]3[C@@H](O)C[C@@H]4C[C@H](O)CC[C@]4(C)[C@H]3CC[C@]12C [potassium salt of the ursodeoxycholic acid] | 7.90
C[C@H](CCC(=O)O)[C@H]1CC[C@H]2[C@@H]3[C@@H](O)C[C@@H]4C[C@H](O)CC[C@]4(C)[C@H]3CC[C@]12C [Example 2, 1-(2-HYDROXYETHYL)PYRROLIDINE SALT OF THE URSODEOXYCHOLIC ACID] | 7.90
